In assay [1] the test system is BJ human normal fibroblast cells. The assay is described as follows: MTT cell viability assay, BJ normal fibroblasts. The note with it: MTT test, 24 h treatment. Format: cell-based. As to the method:
(§1) The evaluation of cytotoxicity of tested compounds was carried out on the G361, A375, and SK-MEL-28 human melanoma cells and BJ human normal fibroblast cells. The cell lines were obtained from American Type Culture Collection (ATCC, Manassas, VA, USA). The cells were cultured at 37 °C in the presence of 5% CO2 in atmosphere. The culture medium (Dulbecco’s Modified Eagle’s Medium for G361 and A375 and Eagle’s Minimum Essential Medium for SK-MEL-28 and BJ) was supplemented with 10% foetal bovine serum. The cells morphology was examined under inverted phase contrast microscope Nikon Eclipse Ti (Nikon, Tokyo, Japan). The authenticity of tested cell lines was verified by short tandem repeat (STR) genotyping in the Department of Forensic Medicine (Medical University of Lublin, Lublin, Poland).
(§2) The cells were seeded into 96-well plates (in concentration: BJ, A375, and SK-MEL-28—1 × 10^5 cells/mL, G361—1.5 × 10^5 cells/mL) and cultured until they reach 70–80% confluency. Then the cells were incubated with tested compounds and dacarbazine in concentrations ranging from 10 to 500 µM or DMSO as vehicle in control cultures for next 24 h (max. DMSO concentration <0.5%). The compounds cytotoxicity was evaluated with the MTT colorimetric method based on the ability of viable cells to the transformation of tetrazolium salts (3-[4,5-dimethylthiazol-2-yl]-2,5-) diphenyltetrazolium bromide, MTT) to purple formazan, by cellular dehydrogenases. After 24-h-incubation cell cultures were supplemented with 20 µL of 5 mg/mL MTT (Thermofisher, Waltham, MA, USA) stock in PBS (Corning, NY, USA), and the incubation was continued for 4 h at 37 °C. Next, the medium with MTT was removed, and the formed crystals were dissolved in 200 µL of DMSO (dimethyl sulfoxide, Avantor, Gliwice, Poland). The solution absorbency was measured at 570 nm, using a PowerWave™ xs microplate spectrophotometer (BioTek Instruments, Winooski, VT, USA). The experiment was performed three times with three replicates for each concentration of tested compounds. IC50 values were determined using the AAT Bioquest IC50 calculator [51]. On the basis of obtained IC50 values for normal and malignant cells, A375 cell line and three tested compounds (CuT1, Cu10, CuT16) were chosen for further investigation.
A general note: Tetrazolium dyes change colour on reduction, which living cells bring about.

The test system of assay [2] is G361 human melanoma cells. The assay is described as follows: MTT cell viability assay, G361 melanoma. Format: cell-based. The following applies: G361, MTT test, 24 h treatment. The procedure:
as §1, §2

For assay [3], the system named is A375 human melanoma cells. Kind of assay: MTT cell viability assay, A375 melanoma. Format: cell-based. The following applies: for IC50: A375, MTT test, 24 h treatment; for toxicity to A375 / malignant cells versus normal cells (in words): from IC50 values, MTT, 24 h. The procedure: as §1, §2
Assay [4] relates to SK-MEL-28 human melanoma cells. Kind of assay: MTT cell viability assay, SK-MEL-28 melanoma. Format: cell-based. The note with it: SK-MEL-28, MTT test, 24 h treatment. As to the method:
as §1, §2

For the next assay, the system named is DNA of A375 cells. The assay is described as follows: DNA damage evaluation: number of AP sites. Format: cell-based, human. The following applies: A375, 24 h, concentration corresponding to IC50; control 0.67 ± 0.08. As to the method:
DNA damage was evaluated on the basis of a basic (AP) sites presence, that arose in response to oxidative damage or as an intermediate in base excision repair pathway. The A375 cells were seeded in 6-well culture plates at a density 1 × 10^5 cells/mL and after 70–80% confluency achievement the cells were treated with CuT1, Cu10, CuT16 in concentrations corresponding to IC50 values or DMSO as vehicle in control cultures. After 24 h of incubation genomic DNA was isolated using Syngen DNA Mini Kit (Syngen Biotech, Wroclaw, Poland) according to the manufacturer’s instruction. The concentrations of isolated DNA for all samples were equalized to 100 µg/mL. The measurements of the number of AP sites were evaluated with DNA Damage Quantification Kit (Dojindo, Japan) according to the manufacturer’s instruction. The DNA was treated with Aldehyde Reactive Probe (ARP) to tag all of the AP sites with a biotin residue. Then all of the AP sites were quantified using avidin—biotin assay. The coloured product of horseradish peroxidase conjugated to the avidin was detected at 650 nm using a PowerWave™ xs microplate spectrophotometer (BioTek Instruments, Winooski, VT, USA).

Another assay has as its system ERCC. The assay is described as follows: qRT-PCR gene expression in A375 cells: ERCC. Format: cell-based, human. The note with it: A375, 24 h, concentration corresponding to IC50; RQ = 2^-ΔΔCt vs control. The procedure:
(§3) The expression level of genes connected with DNA repair and oxidative stress response was evaluated with quantitative real-time PCR (qRT-PCR) method. The A375 cells were seeded in 6-well culture plates at a density 1 × 10^5 cells/mL and after 70–80% confluency achievement the cells were treated with CuT1, Cu10, CuT16 in concentrations corresponding to IC50 values or DMSO as vehicle in control cultures. After 24h of incubation total RNA was isolated using the Syngen Blood/Cell RNA Mini Kit (Syngen Biotech, Wroclaw, Poland). All samples were transcribed using NG dART RT-PCR reagents (EURx, Gdansk, Poland) according to the manufacturer’s instructions. The relative mRNA expression level was determined by relative quantification method (ΔΔCt) using 18S ribosomal N5 (RNA18SN5) and beta-actin (ACTB) as endogenous controls. The reference genes were selected on the basis of our preliminary studies, where RNA18SN5 and ACTB remained unaffected by the experimental conditions. The PCR was conducted in triplicate using Applied Biosystems® 7500 Fast Real-Time PCR system (Applied Biosystems, Foster City, CA, USA) and SG qPCR Master Mix (2×) (EURx, Gdansk, Poland) in accordance with the manufacturer’s protocol. Data was presented and analysed as RQ values (RQ = 2^−ΔΔCt).

The test system of the next assay is MGMT. Kind of assay: qRT-PCR gene expression in A375 cells: MGMT. Format: cell-based, human. The note with it: A375, 24 h, concentration corresponding to IC50; RQ = 2^-ΔΔCt vs control. As to the method: as §3
The test system of another assay is OGG1. The assay is described as follows: qRT-PCR gene expression in A375 cells: OGG1. Format: cell-based, human. The following applies: A375, 24 h, concentration corresponding to IC50; RQ = 2^-ΔΔCt vs control. The procedure: as §3
A further assay deals with MLH1. The assay is described as follows: qRT-PCR gene expression in A375 cells: MLH1. Format: cell-based, human. The note with it: A375, 24 h, concentration corresponding to IC50; RQ = 2^-ΔΔCt vs control. As to the method: as §3
In general terms: Real-time PCR tracks product formation cycle by cycle.

A further assay has as its system PARP1. Kind of assay: qRT-PCR gene expression in A375 cells: PARP1. Format: cell-based, human. The following applies: A375, 24 h, concentration corresponding to IC50; RQ = 2^-ΔΔCt vs control. The procedure:
as §3

The next assay relates to ATM. The assay is described as follows: qRT-PCR gene expression in A375 cells: ATM. Format: cell-based, human. The note with it: A375, 24 h, concentration corresponding to IC50; RQ = 2^-ΔΔCt vs control. The procedure:
as §3

The test system of another assay is XPC. Kind of assay: qRT-PCR gene expression in A375 cells: XPC. Format: cell-based, human. The following applies: A375, 24 h, concentration corresponding to IC50; RQ = 2^-ΔΔCt vs control. The procedure:
as §3

The subject of a further assay is MSH2. Kind of assay: qRT-PCR gene expression in A375 cells: MSH2. Format: cell-based, human. The note with it: A375, 24 h, concentration corresponding to IC50; RQ = 2^-ΔΔCt vs control. The procedure: as §3
The subject of a further assay is CAT. The assay is described as follows: qRT-PCR gene expression in A375 cells: CAT. The following applies: A375, 24 h, concentration corresponding to IC50; RQ = 2^-ΔΔCt vs control. Format: cell-based, human. The procedure: as §3
A further assay concerns GPX2. Kind of assay: qRT-PCR gene expression in A375 cells: GPX2. Format: cell-based, human. The note with it: A375, 24 h, concentration corresponding to IC50; RQ = 2^-ΔΔCt vs control. The procedure: as §3
In a further assay the test system is SOD2. The assay is described as follows: qRT-PCR gene expression in A375 cells: SOD2. The note with it: A375, 24 h, concentration corresponding to IC50; RQ = 2^-ΔΔCt vs control. Format: cell-based, human. The procedure:
as §3

The test system of a further assay is A375 cells. Kind of assay: Microscopic observation of cell morphology. Format: cell-based, human. The following applies: A375, 24 h, concentration corresponding to IC50. The procedure: The MTT test results for selected compounds were verified by microscopic observations of cell morphology. […] A large part of the cells floated in the culture medium (Figure 5).
as §1

One may read the IC50 as the concentration needed to halve the response being measured. High values mean weaker potency, low ones greater potency. Turning to `COc1ccc(C=NNC(=S)Nc2ccc(Cl)cc2)cc1OC.[Cl-].[Cl-].[Cu+2]` [CuT16], the IC50 in assay [1] was 450 ± 11.7 µM; in assay [2], more than 500 µM; in assay [3] it was 145 ± 19.9 µM; in [4], 478 ± 11 µM. In addition, the “toxicity to A375 / malignant cells versus normal cells (in words)” value in assay [3] is “less toxic for normal cells”. Further, the AP sites number in the assay on DNA of A375 cells worked out at 14.09 ± 0.44 AP/100 kbp. The “Mean RQ ERCC mRNA” value with ERCC came to 0.267. For the same compound, the “Mean RQ MGMT mRNA” value with MGMT is reported as 0.361. For the same compound, the “Mean RQ OGG1 mRNA” value in the assay with OGG1 is 0.952. For the same compound, the “Mean RQ MLH1 mRNA” value with MLH1 came to 0.929. Moreover, in the assay with PARP1, the “Mean RQ PARP1 mRNA” value is given as 0.640. Also, the “Mean RQ ATM mRNA” value in the assay with ATM was 2.724. Moreover, the “Mean RQ XPC mRNA” value in the assay on XPC was found to be 1.438. Further, in the assay with MSH2, the “Mean RQ MSH2 mRNA” value is 0.936. The “Mean RQ CAT mRNA” value in the assay with CAT is 0.387. Besides, the “Mean RQ GPX2 mRNA” value in the assay on GPX2 worked out at 0.022. For the same compound, in the assay on SOD2, the “Mean RQ SOD2 mRNA” value was found to be 1.393. Besides, the “cell morphology (in words)” value in the assay on A375 cells was “became round and had poor adherence”.

In the case of `COc1ccc(C=NNC(=S)Nc2ccccc2)cc1OC.[Cl-].[Cl-].[Cu+2]` [CuT1], the IC50 in assay [1] was determined as 257 ± 4.45 µM; in assay [2], 136 ± 7.01 µM; in [3], 69.9 ± 1.87 µM; in [4], 130 ± 3.98 µM. Further, the “toxicity to A375 / malignant cells versus normal cells (in words)” value in [3] is “less toxic for normal cells”. Also, the AP sites number with DNA of A375 cells was determined as 20.24 ± 0.19 AP/100 kbp. Also, the “Mean RQ ERCC mRNA” value in the assay on ERCC amounted to 0.401. In addition, the “Mean RQ MGMT mRNA” value in the assay on MGMT is recorded as 0.715. Further, the “Mean RQ OGG1 mRNA” value in the assay with OGG1 was 0.902. Also, in the assay with MLH1, the “Mean RQ MLH1 mRNA” value amounted to 1.001. The “Mean RQ PARP1 mRNA” value in the assay on PARP1 is given as 0.908. In the assay on ATM, the “Mean RQ ATM mRNA” value is on record as 1.452. In addition, the “Mean RQ XPC mRNA” value in the assay with XPC is listed as 1.038. Also, the “Mean RQ MSH2 mRNA” value in the assay with MSH2 is 0.973. Also, the “Mean RQ CAT mRNA” value with CAT is 0.773. In the assay on GPX2, the “Mean RQ GPX2 mRNA” value stood at 0.000. The “Mean RQ SOD2 mRNA” value in the assay with SOD2 is reported as 1.510. Also, the “cell morphology (in words)” value in the assay with A375 cells was “became round and had poor adherence”.
